From paper PMC6271395, “Synthesis and Biological Activities of Some New (N^α-Dinicotinoyl)-bis-L-Leucyl Linear and Macrocyclic Peptides” (Molecules, 2014)

Assays:
[1] = system: Escherichia coli; experiment: Agar diffusion antimicrobial test, Escherichia coli; type: cell-based; conditions: Gram−ve, modified Kirby–Bauer disk diffusion, 10 µg/mL
Description: (§1) The newly synthesized compounds 3–12 were tested for their preliminary antimicrobial activity against different microorganisms representing Gram-positive (Bacillus subtilis, Bacillus aureus and Staphylococcus aureus), Gram-negative bacteria (Escherichia coli), yeast (Candida albican) and fungi (Aspergillus niger).
(§2) The antimicrobial activities of the synthesized compounds were determined by the agar diffusion method as recommended by the national committee for clinical laboratory standards (NCCLS). The concentrations of the tested compounds (10 µg/mL) were used according to modified Kirby–Bauer’s disk diffusion method. The degree of inhibition is measured in comparison with that of chloramphinicol and fusidic acid taken as standards.

[2] = system: Bacillus aureus; experiment: Agar diffusion antimicrobial test, Bacillus aureus; type: cell-based; conditions: Gram+ve, modified Kirby–Bauer disk diffusion, 10 µg/mL
Description: as §1, §2

[3] = system: Staphylococcus aureus; experiment: Agar diffusion antimicrobial test, Staphylococcus aureus; type: cell-based; conditions: Gram+ve, modified Kirby–Bauer disk diffusion, 10 µg/mL
Description: as §1, §2

[4] = system: Bacillus subtilis; experiment: Agar diffusion antimicrobial test, Bacillus subtilis; type: cell-based; conditions: Gram+ve, modified Kirby–Bauer disk diffusion, 10 µg/mL
Description: as §1, §2

[5] = system: carrageenan-induced edema; experiment: Carrageenan-induced edema (rat paw test); type: in vivo; conditions: one hour before carrageenan, male albino rats, eight animals per group, paws excised four hours after drug administration
Description: (§3) For the determination of the antiphlogistic potency of the synthesized compounds, two standard tests were realized at a dose level 2.5 and 5 mg/kg body weight of the rats, namely the protection against carrageenan-induced edema according to Winter et al. and the inhibition of plasma PGE2. The latter is known as a good confirming indicator for carrageenan-induced rat paw edema. […] For these compounds, a similar activity profile was realized for the inhibition of plasma PGE2.
(§4) Groups of adult male albino rats (150–180 g), each of eight animals were orally dosed with tested compounds at a dose level of 2.5–5 mg/kg one hour before carrageenan challenge. Foot paw edema was induced by subplantar injection of 0.05 cm^3 of a 1% suspension of carrageenan in saline into the plantar tissue of one hind paw. An equal volume of saline was injected to the other hand paw and served as control. Four hours after drug administration the animals were decapitated, blood was collected, and the paws were rapidly excised. The average weight of edema was examined for the treated as well as the control group and the percentage inhibition of weight of edema was also evaluated. Diclofenac potassium (5 mg/kg) was employed as standard reference against which the tested compounds were compared (Table 2).

[6] = system: plasma PGE2; experiment: Inhibition of plasma PGE2 (EIA) in carrageenan-challenged rats; type: in vivo, rat; conditions: rats n = 8, blood four hours after drug administration, PGE2 EIA kit
Description: as §3, §4
Heparinized blood samples were collected from rats (n = 8), plasma was separated by centrifugation at 12,000 g for 2 min at […], immediately frozen, and stored at […] until use. The design correlate EIA prostaglandin E2 (PGE2) kit (Aldrich, Steinheim, Germany) is a competitive immuno assay for the quantitative determination of PGE2 in biological fluids. The kit uses a monoclonal antibody to PGE2 to bind, in a competitive manner, the PGE2 in the sample after a simultaneous incubation at room temperature. The excess reagents were washed away and the substrate was added, after a short incubation time the enzyme reaction was stopped, and the yellow color generated was read on a microplate reader DYNATech, MR 5000 at 405 nm (Dynatech Industries Inc., McLean, VA, USA). The intensity of the bound yellow color is inversely proportional to the concentration of PGE2 in either standard or samples.

[7] = system: Aspergillus niger; experiment: Agar diffusion antimicrobial test, Aspergillus niger; type: cell-based; conditions: Fungi, modified Kirby–Bauer disk diffusion, 10 µg/mL
Description: as §1, §2

[8] = system: Candida albicans; experiment: Agar diffusion antimicrobial test, Candida albicans; type: cell-based; conditions: Yeast, modified Kirby–Bauer disk diffusion, 10 µg/mL
Description: as §1, §2

| Compound | Inhibition Zome, Escherichia coli [1] [cm] | Inhibition Zome, Bacillus aureus [2] [cm] | Inhibition Zome, Staphylococcus aureus [3] [cm] | Inhibition Zome, Bacillus subtilis [4] [cm] | % Protection against Edema ([5]; dose 2.5 mg/kg oral) [%] | % Protection against Edema ([5]; dose 5.0 mg/kg oral) [%] | % Inhibition of Plasma PGE2 ([6]; dose 2.5 mg/kg oral) [%] | % Inhibition of Plasma PGE2 ([6]; dose 5.0 mg/kg oral) [%] | Inhibition Zome, Aspergillus niger [7] [cm] | Inhibition Zome, Candida albicans [8] [cm] |
| --- | --- | --- | --- | --- | --- | --- | --- | --- | --- | --- |
| O=C(N[C@H](CO)[C@H](O)c1ccc([N+](=O)[O-])cc1)C(Cl)Cl [Chloramphenicol, reference compound] | 0.95 | 2.10 | 2.00 | 2.00 |  |  |  |  |  |  |
| CC(C)C[C@H](NC(=O)c1cncc(C(=O)N[C@@H](CC(C)C)C(=O)O)c1)C(=O)O [Compound 5, N,N′-Bis(1-Carboxy-2-L-leucyl)-3,5-(diaminocarbonyl)pyridine] | 0.64 | 1.14 | 1.76 | 1.68 | 85.14 ± 0.056 | 96.18 ± 0.067 | 61.16 ± 0.041 | 77.14 ± 0.036 | 1.72 |  |
| 2,6-Bis {N-{(2R)-1-[2-(4-methoxybenzylidene)hydrazinyl]-4-methyl-1-oxopentan]-3-carboxamido}-pyridine [Compound 10c] | 0.80 | 1.56 | 1.64 | 1.76 |  |  |  |  | 1.95 | 1.00 |
| COC(=O)[C@@H]1CCCCNC(=O)[C@H](CC(C)C)NC(=O)c2cncc(c2)C(=O)N[C@@H](CC(C)C)C(=O)N1 [Compound 6, Cyclo-(Na-dinicotinoyl)-bis-(L-leucyl)-L-lysine methyl ester] | 0.65 | 1.50 | 1.54 | 1.82 | 92.14 ± 0.076 | 99.08 ± 0.062 | 84.18 ± 0.052 | 86.01 ± 0.030 | 1.75 |  |
| 2,6-Bis {N-{(2R)-1-[2-(4-methylbenzylidene)hydrazinyl]-4-methyl-1-oxopentan]-3-carboxamido}-pyridine [Compound 10b] | 0.78 | 1.95 | 1.85 | 1.80 |  |  |  |  | 1.56 | 0.95 |
| COC(=O)[C@H](CC(C)C)NC(=O)c1cncc(C(=O)N[C@@H](CC(C)C)C(=O)OC)c1 [Compound 3, 3,5-Bis-(Methyl L-Leucenylcarbonyl)pyridine carboxylate] | 0.62 | 1.65 | 1.76 | 1.46 | 86.16 ± 0.052 | 98.18 ± 0.053 | 59.45 ± 0.050 | 81.10 ± 0.056 | 1.78 |  |
| 2,6-Bis[(N-[4-methyl-1-(4,5,6,7-tetrachloro-1H-isoindole-1,3(2H)-dion)-pentan]-3-carboxamido]-pyridine [Compound 7b] | 0.66 | 1.80 | 1.45 | 1.46 |  |  |  |  | 1.95 |  |
| CC(C)C[C@@H]1NC(=O)c2cncc(c2)C(=O)N[C@@H](CC(C)C)C(=O)NN2C(=O)c3ccc4c5c(ccc(c35)C2=O)C(=O)N(NC(=O)[C@H](CC(C)C)NC(=O)c2cncc(c2)C(=O)N[C@@H](CC(C)C)C(=O)NN2C(=O)c3ccc5c6c(ccc(c36)C2=O)C(=O)N(NC1=O)C5=O)C4=O [Compound 12] | 0.64 | 1.83 | 1.65 | 1.65 | 90.48 ± 0.090 | 99.36 ± 0.080 | 63.16 ± 0.036 | 86.18 ± 0.071 | 1.58 |  |
| CC(C)C[C@H](NC(=O)c1cncc(C(=O)N[C@@H](CC(C)C)C(=O)N/N=C/c2ccccc2)c1)C(=O)N/N=C/c1ccccc1 [Compound 10a] | 0.66 | 1.45 | 1.56 | 1.56 | 90.32 ± 0.035 | 99.10 ± 0.036 | 62.12 ± 0.051 | 83.01 ± 0.049 | 1.68 |  |
| O=C([O-])Cc1ccccc1Nc1c(Cl)cccc1Cl.[K+] [Diclofenac Potassium, reference compound] |  |  |  |  | 70.14 ± 0.064 | 75.23 ± 0.083 | 54.00 ± 0.041 | 70.00 ± 0.051 |  |  |
| 2,6-Bis {N-{(2R)-1-[2-(4-chlorobenzylidene)hydrazinyl]-4-methyl-1-oxopentan]-3-carboxamido}-pyridine [Compound 10e] | 0.78 | 1.96 | 1.80 | 1.65 |  |  |  |  | 1.48 | 0.94 |
| CC(=O)O[C@H]1C[C@@]2(C)[C@@H](C[C@@H](O)[C@H]3[C@@]4(C)CC[C@@H](O)[C@@H](C)[C@@H]4CC[C@@]32C)/C1=C(\CCC=C(C)C)C(=O)O [Fusidic Acid, reference compound] |  |  |  |  |  |  |  |  | 1.9 | 1.9 |
| 2,6-Bis {N-[1-{(2E)-2-[1-(4-nitrophenyl)ethylidene]hydrazinyl}-4-methyl-1-oxopentan]-3-carboxamido}pyridine [Compound 9c] | 0.60 | 1.22 | 1.66 | 1.72 |  |  |  |  | 1.76 |  |
